Data from article PMC9655341 (Molecules, 2022).

What was measured:
[1] = molecular target: T1, human MT2 melatonin receptor (Homo sapiens, UniProt P49286); assay: Radioligand binding assay at human MT2 (MDS Pharma Services), 2-[125I]iodomelatonin; conditions: for IC50 / Ki / nH (Hill coefficient): MT2; for inhibition at 50 pM: MT2, concentration 0.05 nM; for inhibition at 0.001 µM: MT2, concentration 1 nM; for inhibition at 1 µM: MT2, concentration 1 µM
T1 construct: expressed in transfected cells; host or cells: CHO (Chinese hamster ovary) cells, stably transfected
T1 sequence (P49286 1-362): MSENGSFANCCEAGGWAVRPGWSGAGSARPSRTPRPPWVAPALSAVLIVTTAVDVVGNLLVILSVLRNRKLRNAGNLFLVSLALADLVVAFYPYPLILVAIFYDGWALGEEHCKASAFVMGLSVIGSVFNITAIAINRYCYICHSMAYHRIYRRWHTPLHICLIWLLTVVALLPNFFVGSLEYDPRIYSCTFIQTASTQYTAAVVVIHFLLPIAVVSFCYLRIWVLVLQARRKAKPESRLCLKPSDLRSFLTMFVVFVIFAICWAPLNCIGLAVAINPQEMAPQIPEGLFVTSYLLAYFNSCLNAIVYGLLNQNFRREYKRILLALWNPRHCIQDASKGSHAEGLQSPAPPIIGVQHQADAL
Procedure: The newly synthesized indole derivatives were evaluated for their binding affinity and intrinsic activity at human MT1 and MT2 receptors stably transfected in Chinese hamster ovary (CHO) cells using 2-[^125I]iodomelatonin as a radioligand, and the results are shown in Table 5 and Table 6.

human MT1 receptors [2] = molecular target: T2, human MT1 receptors (Homo sapiens, UniProt P48039); assay: Binding affinity at human MT1 receptors stably transfected in CHO cells, 2-[125I]iodomelatonin; conditions: read-out: MT1 pKi (Mean ± SD) (converted)
T2 construct: expressed in transfected cells; host or cells: CHO (Chinese hamster ovary) cells, stably transfected

human MT2 receptors [3] = molecular target: T3, human MT2 receptors (Homo sapiens, UniProt P49286); assay: Binding affinity at human MT2 receptors stably transfected in CHO cells, 2-[125I]iodomelatonin; conditions: read-out: MT2 pKi (Mean ± SD) (converted)
T3 construct: expressed in transfected cells; host or cells: CHO (Chinese hamster ovary) cells, stably transfected
T3 sequence (P49286 1-362): T1 sequence (P49286 1-362)

human MT2 receptors [4] = molecular target: T3, human MT2 receptors; assay: Intrinsic activity at human MT2 receptors stably transfected in CHO cells; format: biochemical; conditions: MT2, melatonin = 1.00
human MT1 receptors [5] = molecular target: T2, human MT1 receptors; assay: Intrinsic activity at human MT1 receptors stably transfected in CHO cells; format: biochemical; conditions: MT1, melatonin = 1.00
[6] = molecular target: T4, human MT1 melatonin receptor (Homo sapiens, UniProt P48039); assay: Radioligand binding assay at human MT1 (MDS Pharma Services), 2-[125I]iodomelatonin; conditions: for inhibition at 50 pM: MT1, concentration 0.05 nM; for inhibition at 0.001 µM: MT1, concentration 1 nM; for inhibition at 1 µM: MT1, concentration 1 µM
T4 construct: expressed in transfected cells; host or cells: CHO (Chinese hamster ovary) cells, stably transfected

[7] = Oxidation of 2,3-dihydroindoles in solution (NMR tube, storage in DMSO solution); format: physicochemical
Description: Despite stability in the solid phase, the obtained 2,3-dihydroindoles are sensitive to oxidation in solution. Thus, the oxidation in the NMR tube occurred both in spiro and 3H-containing indolines, but led to different types of products. […] The compounds 8i,l,g were also partially converted to aromatic indoles 9i,l,g during purification by column chromatography.
[formula] Scheme 10 Oxidative conversion of 2,3-dihydroindoles during storage in DMSO solution.

T2 sequence (P48039 whole entry): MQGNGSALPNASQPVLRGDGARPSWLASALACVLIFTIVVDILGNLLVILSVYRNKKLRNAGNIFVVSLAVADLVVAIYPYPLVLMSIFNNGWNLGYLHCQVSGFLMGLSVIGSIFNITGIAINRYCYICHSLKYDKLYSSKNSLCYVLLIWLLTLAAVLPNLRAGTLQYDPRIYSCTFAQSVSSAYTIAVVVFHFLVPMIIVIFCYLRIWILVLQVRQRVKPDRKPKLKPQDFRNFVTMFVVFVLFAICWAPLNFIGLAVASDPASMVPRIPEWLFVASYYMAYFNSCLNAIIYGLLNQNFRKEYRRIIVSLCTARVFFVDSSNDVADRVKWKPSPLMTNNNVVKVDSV
T4 sequence (P48039 whole entry): as above

CCC(=O)NC1Cc2ccccc2C(c2ccccc2)C1 (stereo not drawn) [4-P-PDOT, reference compound]
IC50 [1]: 0.497 nM
Ki [1]: 0.258 nM
nH (Hill coefficient) [1]: 0.840

CC(=O)NCCC1(C)CN(Cc2ccccc2)c2ccccc21 (stereo not drawn) [8b, N-[2-(1-Benzyl-3-methyl-2,3-dihydro-1H-indol-3-yl)ethyl]acetamide]
Ki (human MT1 receptors [2]): 1740 nM
Ki (human MT2 receptors [3]): 72.4 nM
MT2 Intrinsic Activity (human MT2 receptors [4]): 0.45 ± 0.04
MT1 Intrinsic Activity (human MT1 receptors [5]): 0.33 ± 0.04

CC(=O)NCCC1CN(C)c2c1ccc(C)c2C (stereo not drawn) [8l, N-[2-(1,6,7-Trimethyl −2,3-dihydro-1H-indol-3-yl)ethyl]acetamide]
Ki (human MT1 receptors [2]): 251 nM
Ki (human MT2 receptors [3]): 166 nM
MT2 Intrinsic Activity (human MT2 receptors [4]): 0.83 ± 0.05
MT1 Intrinsic Activity (human MT1 receptors [5]): 0.61 ± 0.15

COc1ccc2c(c1)C(C)(CCNC(C)=O)CN2C (stereo not drawn) [8e, N-[2-(1,3-Dimethyl-5-methoxy-2,3-dihydro-1H-indol-3-yl)ethyl]acetamide]
Ki (human MT1 receptors [2]): 58.9 nM
Ki (human MT2 receptors [3]): 195 nM
MT2 Intrinsic Activity (human MT2 receptors [4]): 0.96 ± 0.07
MT1 Intrinsic Activity (human MT1 receptors [5]): 0.94 ± 0.10

COc1ccc2c(c1)C(C)(CCNC(C)=O)CN2Cc1ccccc1 (stereo not drawn) [8f, N-[2-(1-Benzyl-3-methyl-5-methoxy-2,3-dihydro-1H-indol-3-yl)ethyl]acetamide]
Ki (human MT1 receptors [2]): 112 nM
Ki (human MT2 receptors [3]): 46.8 nM
MT2 Intrinsic Activity (human MT2 receptors [4]): 0.61 ± 0.03
MT1 Intrinsic Activity (human MT1 receptors [5]): 0.63 ± 0.14

COc1ccc2c(c1)C(CCNC(C)=O)CN2Cc1ccccc1 (stereo not drawn) [8h, N-[2-(1-Benzyl-5-methoxy-2,3-dihydro-1H-indol-3-yl)ethyl]acetamide]
Ki (human MT1 receptors [2]): 5.25 nM
Ki (human MT2 receptors [3]): 2.29 nM
MT2 Intrinsic Activity (human MT2 receptors [4]): 0.85 ± 0.08
MT1 Intrinsic Activity (human MT1 receptors [5]): 1.04 ± 0.14

COc1ccc2c(c1)C(CCNC(C)=O)C(=O)N2 (stereo not drawn) [7a, N-[2-(5-methoxy-2-oxo-2,3-dihydro-1H-indol-3-yl)ethyl]acetamide]
IC50 [1]: 268 nM
Ki [1]: 139 nM
nH (Hill coefficient) [1]: 0.676
inhibition at 50 pM [1]: 4%
inhibition at 0.001 µM [1]: 3%
inhibition at 1 µM [1]: 71%
IC50 ([6]; MT1): > 1000 nM
inhibition at 50 pM [6]: 4%
inhibition at 0.001 µM [6]: 3%
inhibition at 1 µM [6]: 46%

COc1ccc2[nH]c(Cl)c(CCNC(C)=O)c2c1 [7d, 2-chloromelatonin]
IC50 [1]: 0.338 nM
Ki [1]: 0.176 nM
nH (Hill coefficient) [1]: 1.01
inhibition at 50 pM [1]: 13%
inhibition at 0.001 µM [1]: 75%
inhibition at 1 µM [1]: 98%
IC50 ([6]; MT1): 0.138 nM
Ki ([6]; MT1): 0.0716 nM
nH (Hill coefficient) ([6]; MT1): 0.925
inhibition at 50 pM [6]: 28%
inhibition at 0.001 µM [6]: 86%
inhibition at 1 µM [6]: 100%
MT1 receptor binding activity compared with melatonin ([6]; MT1, in words): more active than melatonin

CC(=O)NCCC1(C)CN(C)c2ccccc21 (stereo not drawn) [8a, N-[2-(1,3-Dimethyl-2,3-dihydro-1H-indol-3-yl)ethyl]acetamide]
Ki (human MT1 receptors [2]): 776 nM
Ki (human MT2 receptors [3]): 427 nM
MT2 Intrinsic Activity (human MT2 receptors [4]): 0.74 ± 0.07
MT1 Intrinsic Activity (human MT1 receptors [5]): 0.47 ± 0.10

CC(=O)NCCC1CN(Cc2ccccc2)c2ccccc21 (stereo not drawn) [8m, N-[2-(1-Benzyl-2,3-dihydro-1H-indol-3-yl)ethyl]acetamide]
Stability to oxidation in solution [7]: aromatization of the indole ring occurred

CC(=O)NCC1CC12CN(C)c1ccccc12 (stereo not drawn) [10a, N-{1′-Methyl-1′,2′-dihydrospiro[cyclopropan-1,3′-indol]-3-ylmethyl}acetamide]
Stability to oxidation in solution [7]: oxidized to 2-oxindole

COc1ccc2[nH]cc(CCNC(C)=O)c2c1 [Melatonin, 3-(2-(acetylamino)ethyl)-5-methoxyindole, reference compound]
MT1 Intrinsic Activity (human MT1 receptors [5]): 1.00 ± 0.03
nH (Hill coefficient) ([6]; MT1): 0.774
